The source of these data is patent US9586973B2, “HDAC6 inhibitors and uses thereof” (Universiteit Gent, priority 2013, dated 2017).

One test concerns the target T1, HDAC6 (Homo sapiens, UniProt Q9UBN7).
T1 sequence (Q9UBN7 1-1215): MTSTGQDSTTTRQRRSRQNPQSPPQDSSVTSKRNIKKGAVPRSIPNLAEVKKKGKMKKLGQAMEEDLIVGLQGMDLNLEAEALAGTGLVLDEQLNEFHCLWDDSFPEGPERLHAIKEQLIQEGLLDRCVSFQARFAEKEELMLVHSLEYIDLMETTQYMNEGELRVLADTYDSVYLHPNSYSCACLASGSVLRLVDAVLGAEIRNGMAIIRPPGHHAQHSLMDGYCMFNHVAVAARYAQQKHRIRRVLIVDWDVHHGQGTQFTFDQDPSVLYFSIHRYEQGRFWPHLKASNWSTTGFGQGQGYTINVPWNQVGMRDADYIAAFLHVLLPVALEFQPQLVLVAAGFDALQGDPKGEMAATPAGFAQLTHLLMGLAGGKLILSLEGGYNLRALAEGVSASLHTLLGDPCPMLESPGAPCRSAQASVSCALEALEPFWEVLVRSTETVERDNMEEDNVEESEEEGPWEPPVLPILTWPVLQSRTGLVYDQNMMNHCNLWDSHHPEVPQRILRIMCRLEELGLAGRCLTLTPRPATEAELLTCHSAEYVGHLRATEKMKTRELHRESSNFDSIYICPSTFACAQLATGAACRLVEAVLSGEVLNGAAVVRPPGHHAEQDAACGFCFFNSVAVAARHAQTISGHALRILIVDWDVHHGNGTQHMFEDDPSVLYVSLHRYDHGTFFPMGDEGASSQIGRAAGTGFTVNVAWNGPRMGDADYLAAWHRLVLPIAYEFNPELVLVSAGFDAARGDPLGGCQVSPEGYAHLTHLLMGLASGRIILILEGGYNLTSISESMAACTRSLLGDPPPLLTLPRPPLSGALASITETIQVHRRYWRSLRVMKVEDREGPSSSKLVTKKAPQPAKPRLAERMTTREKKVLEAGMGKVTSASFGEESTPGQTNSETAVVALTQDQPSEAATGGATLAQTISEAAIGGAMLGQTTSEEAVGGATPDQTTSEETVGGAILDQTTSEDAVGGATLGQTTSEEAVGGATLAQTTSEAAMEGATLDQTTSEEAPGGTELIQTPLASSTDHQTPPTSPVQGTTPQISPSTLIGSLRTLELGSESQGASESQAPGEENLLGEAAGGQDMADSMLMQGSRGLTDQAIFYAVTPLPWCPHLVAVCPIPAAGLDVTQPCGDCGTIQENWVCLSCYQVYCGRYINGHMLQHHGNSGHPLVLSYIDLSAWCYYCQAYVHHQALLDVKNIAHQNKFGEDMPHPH
In words: biochemical. As to conditions: for inhibition at 10 µM: read-out: % inhibition HDAC6.

The nature of test [1]: MTT assay, inhibition of cell proliferation. Conditions: tested at 0.01, 0.1, 1 and 10 μg/ml; FIG. 3. On the technique in general: Tetrazolium dyes change colour on reduction, which living cells bring about.
Test [2] relates to MO4 mouse fibrosarcoma cells. Description: SRB assay, inhibition of cell proliferation. Conditions: tested at 0.01, 0.1, 1 and 10 μg/ml, FIG. 2. The class given is cell-based. The protocol: The sulforhodamine B (SRB) assay is used for cell density determination, and is based on the measurement of cellular protein content (“biomass”)^12,13. The method has been optimized for the screening of compounds for growth effects on adherent cells in a 96-well format. After an incubation period with the compound of the invention, cell monolayers (MO4 mouse fibrosarcoma cells) are fixed with 50% (wt/vol) trichloroacetic acid for 1 hour and stained with SRB for 30 min, after which the excess dye is removed by washing repeatedly with 1% (vol/vol) […]. The protein-bound dye is dissolved in 10 mM Tris base solution for OD determination at 570 nm using a microplate reader. […] The method allows to test a large number of samples within a few days, and is a quantitative assay for growth inhibition by microtubule inhibitors.
On the technique in general: In SRB staining, fixed cells bind dye roughly in proportion to their protein.

Another test deals with HDAC1 (Homo sapiens, UniProt Q13547). In words: HDAC1 inhibitory activity (in vitro pharmacology). Conditions: for inhibition at 10 µM: read-out: % inhibition HDAC1. In kind it is biochemical.
Chain of HDAC1 (Q13547 whole entry, species assumed): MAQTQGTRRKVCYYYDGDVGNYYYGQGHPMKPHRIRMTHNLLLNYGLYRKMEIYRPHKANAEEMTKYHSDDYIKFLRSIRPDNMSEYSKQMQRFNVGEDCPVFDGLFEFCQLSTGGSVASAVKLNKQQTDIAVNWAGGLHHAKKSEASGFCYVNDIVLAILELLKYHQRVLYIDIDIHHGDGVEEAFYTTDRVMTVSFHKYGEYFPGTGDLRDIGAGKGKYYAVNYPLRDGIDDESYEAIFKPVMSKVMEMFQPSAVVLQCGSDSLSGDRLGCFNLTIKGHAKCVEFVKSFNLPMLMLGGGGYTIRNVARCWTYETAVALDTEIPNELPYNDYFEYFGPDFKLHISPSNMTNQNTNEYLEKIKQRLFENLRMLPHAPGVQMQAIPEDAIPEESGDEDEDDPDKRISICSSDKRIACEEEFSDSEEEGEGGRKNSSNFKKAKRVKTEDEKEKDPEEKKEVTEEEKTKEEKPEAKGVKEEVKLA
The next test addresses T2, HDAC11 (Homo sapiens, UniProt Q96DB2).
T2 sequence (Q96DB2 1-347): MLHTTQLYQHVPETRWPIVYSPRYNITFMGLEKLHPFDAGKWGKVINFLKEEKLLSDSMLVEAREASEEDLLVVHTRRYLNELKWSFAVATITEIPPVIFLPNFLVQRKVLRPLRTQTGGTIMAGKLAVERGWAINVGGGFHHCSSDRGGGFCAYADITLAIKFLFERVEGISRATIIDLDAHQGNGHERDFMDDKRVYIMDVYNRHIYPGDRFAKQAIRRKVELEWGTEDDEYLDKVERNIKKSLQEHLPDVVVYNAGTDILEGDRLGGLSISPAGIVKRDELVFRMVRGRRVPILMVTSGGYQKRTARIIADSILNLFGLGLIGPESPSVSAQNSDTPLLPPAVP
In words: HDAC11 inhibition (selectivity). The class given is biochemical. Conditions: for HDAC 11 inhibitory effect: no IC50 values could be obtained.

Test [3] relates to MDA MB 231 human mammary adenocarcinoma cells. In words: Collagen invasion assay. In kind it is cell-based. As to conditions: for inhibition of invasion of cells into collagen type I gel: 24 hours, FIG. 4. The text has this: Tissue invasion requires infiltration into an extracellular matrix (ECM) dominated by networks of collagen type I. The invasion model consists of native, acid-extracted rat tail collagen type I containing nonhelical telopeptides situated at the N- and C-terminal ends. These telopeptides play an important role in intermolecular covalent cross-links necessary for a gel architecture presenting itself as a structural barrier to cancer cell traffic. […] The collagen type I solution was gently poured into the wells of a 6-well plate. The experimental set-up was placed at 37° C. in a humidified atmosphere with 10% CO2 in air for at least 1 h. […] Invasion is calculated as the percentage of invading cells per high powered field and is expressed as the mean and standard deviation.
Compound 7c (10 μg/ml) and paclitaxel (1 μg/ml) were tested in the assay. As a control, cells in medium without additional compounds was used. The effect of the solvent of compound 7c (1% DMSO) was measured as well.

The target in the next test is HDAC4 (Homo sapiens, UniProt P56524). In words: HDAC4 inhibition (selectivity). The class given is biochemical.
Chain of HDAC4 (P56524 whole entry, species assumed): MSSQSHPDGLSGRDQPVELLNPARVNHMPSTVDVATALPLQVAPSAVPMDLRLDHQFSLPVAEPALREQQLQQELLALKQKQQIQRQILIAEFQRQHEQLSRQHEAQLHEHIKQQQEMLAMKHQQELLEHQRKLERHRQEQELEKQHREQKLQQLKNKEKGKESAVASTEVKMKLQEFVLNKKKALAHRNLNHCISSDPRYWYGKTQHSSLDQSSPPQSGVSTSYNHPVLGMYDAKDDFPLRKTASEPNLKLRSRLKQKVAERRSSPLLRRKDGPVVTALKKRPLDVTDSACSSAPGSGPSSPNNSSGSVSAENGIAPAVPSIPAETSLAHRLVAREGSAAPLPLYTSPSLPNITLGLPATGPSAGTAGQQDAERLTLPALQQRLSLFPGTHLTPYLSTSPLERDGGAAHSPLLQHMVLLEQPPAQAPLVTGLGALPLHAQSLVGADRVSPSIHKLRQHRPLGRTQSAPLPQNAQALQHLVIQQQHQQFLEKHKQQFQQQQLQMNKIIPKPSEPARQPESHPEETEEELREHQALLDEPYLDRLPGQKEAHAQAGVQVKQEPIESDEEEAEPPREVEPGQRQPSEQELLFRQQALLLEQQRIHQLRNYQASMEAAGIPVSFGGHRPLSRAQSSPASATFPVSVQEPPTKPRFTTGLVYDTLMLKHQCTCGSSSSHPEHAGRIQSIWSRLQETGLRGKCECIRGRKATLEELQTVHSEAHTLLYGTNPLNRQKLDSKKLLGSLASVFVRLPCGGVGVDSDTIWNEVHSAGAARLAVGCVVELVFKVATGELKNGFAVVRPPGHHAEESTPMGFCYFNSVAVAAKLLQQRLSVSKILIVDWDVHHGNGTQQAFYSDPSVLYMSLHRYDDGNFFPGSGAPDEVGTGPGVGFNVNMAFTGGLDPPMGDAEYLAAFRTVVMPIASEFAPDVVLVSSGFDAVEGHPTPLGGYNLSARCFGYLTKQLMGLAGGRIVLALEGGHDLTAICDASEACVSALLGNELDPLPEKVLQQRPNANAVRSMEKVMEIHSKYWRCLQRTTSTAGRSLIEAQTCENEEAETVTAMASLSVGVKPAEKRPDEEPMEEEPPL
A further test addresses T3, HDAC8 (Homo sapiens, UniProt Q9BY41).
T3 sequence (Q9BY41 1-377): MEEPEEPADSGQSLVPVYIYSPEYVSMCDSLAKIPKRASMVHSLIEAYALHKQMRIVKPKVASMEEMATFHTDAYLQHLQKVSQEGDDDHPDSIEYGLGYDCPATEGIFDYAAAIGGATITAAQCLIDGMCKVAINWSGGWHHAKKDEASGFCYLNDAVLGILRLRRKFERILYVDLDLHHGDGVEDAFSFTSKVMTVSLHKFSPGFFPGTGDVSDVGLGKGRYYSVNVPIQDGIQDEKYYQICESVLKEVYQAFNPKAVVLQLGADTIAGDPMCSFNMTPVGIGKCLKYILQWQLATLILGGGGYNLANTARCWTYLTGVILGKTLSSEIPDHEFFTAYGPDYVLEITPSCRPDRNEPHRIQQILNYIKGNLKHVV
Description: HDAC8 inhibition (selectivity). The class given is biochemical.

Where [4] appears, read: read-out: IC50 values for HDAC6 inhibition, Table 3 and text.

Where two headings read alike, the source gives them in different places.

In turn, `O=C(NO)c1ccc(Cn2c3c(c4ccccc42)CSCC3)cc1` [Compound 7a, N-(4-Hydroxycarbamoylbenzyl)-1,2,4,9-tetrahydro-3-thia-9-azafluorene] registered an IC50 at HDAC6 of 15 nM. The inhibition at 10 µM stood at 99% at HDAC6 and 26% on HDAC1. Also, the “inhibition of cell proliferation, MTT assay” value (“inhibition … MTT assay” below) in test [1] is “inhibition of cell proliferation”. Moreover, the “inhibition of cell proliferation, SRB assay” value (“inhibition … SRB assay” below) in test [2] is “inhibit cell proliferation”; in test [2] (listed as 7A) it was “inhibition of cell proliferation”.

Regarding `O=C(NO)c1ccc(Cn2c3c(c4cc(F)ccc42)CSCC3)cc1` [Compound 7c, N-(4-Hydroxycarbamoylbenzyl)-6-fluoro-1,2,4,9-tetrahydro-3-thia-9-azafluorene], at HDAC6, the “HDAC6 versus HDAC8 selectivity” value was found to be 127 fold. The concentration for half-maximal inhibition (IC50) amounted to 22 nM at HDAC6; 22 nM on HDAC6 (read-out: HDAC6 IC50, Table 4); 22 nM on HDAC6 (setting [4]); 9700 nM at HDAC11; 1500 nM against HDAC4; 21000 nM at HDAC1. On HDAC8, this compound displayed an IC50 of 2800 nM. Besides, the inhibition at 10 µM at HDAC6 amounted to 99%; on HDAC1 it was 17%. Also, the “inhibition … MTT assay” value in test [1] was “inhibition of cell proliferation”. The “inhibition of invasion of cells into collagen type I gel” value in test [3] (10 μg/ml, compared to solvent control (1% DMSO)) is “inhibits invasion”; in test [3] (10 μg/ml, compared to solvent control (1% DMSO), listed as 7C), “inhibition of invasion”. Moreover, the histology of invasion entry in test [3] (after 14 days) was “confirmed inhibition of invasion”. Besides, the “inhibition … SRB assay” value in test [2] is “inhibit cell proliferation”; in test [2] (listed as 7C), “inhibition of cell proliferation”.

In the case of `O=C(NO)c1ccc(Cn2c3c(c4ccccc42)CS(=O)(=O)CC3)cc1` [Compound 10a, N-(4-Hydroxycarbamoylbenzyl)-1,2,4,9-tetrahydro-3-thia-9-azafluorene-3,3-dioxide], the “HDAC6 versus HDAC4 selectivity” value at HDAC6 is listed as 842 fold. Also, the “HDAC6 versus HDAC8 selectivity” value at HDAC6 was determined as 895 fold. Besides, the IC50 was determined as 1.9 nM against HDAC6; 1.9 nM at HDAC6 (read-out: HDAC6 IC50, Table 4); 1.9 nM on HDAC6 (read-out: HDAC6 IC50, Table 5); 1.9 nM on HDAC6 (setting [4]); 1600 nM at HDAC4; 11000 nM against HDAC1. Further, the IC50 at HDAC1 (read-out: HDAC1 IC50, Table 5) was 11000 nM; on HDAC8, 1700 nM. The “selectivity against HDAC1 (HDAC6 vs HDAC1)” value at HDAC6 was 5789 fold. Also, on HDAC6 (Table 5), the “Selectivity = IC50 (HDAC1)/IC50 (HDAC6)” value came to 5789. For the same compound, the inhibition at 10 µM stood at 99% at HDAC6 and 51% on HDAC1. The “HDAC 11 inhibitory effect” value on HDAC11 was “very low”.

As for `COc1cc(C(=O)NO)ccc1Cn1c2c(c3ccccc31)CS(=O)(=O)CC2` [Compound 10b], on HDAC6, half-maximal inhibition (IC50) required 2000 nM and the inhibition at 10 µM is 73%. Besides, at HDAC1, the inhibition at 10 µM stood at 2%.

In the case of `O=C(NO)c1ccc(Cn2c3c(c4cc(F)ccc42)CS(=O)(=O)CC3)cc1` [Compound 10c, N-(4-Hydroxycarbamoylbenzyl)-6-fluoro-1,2,4,9-tetrahydro-3-thia-9-azafluorene-3,3-dioxide], the “HDAC6 versus HDAC4 selectivity” value at HDAC6 is given as 513 fold. Moreover, on HDAC6, the “HDAC6 versus HDAC8 selectivity” value worked out at 251 fold. For the same compound, the IC50 against HDAC6 turned out to be 3.7 nM; on HDAC6 (read-out: HDAC6 IC50, Table 4), 3.7 nM; on HDAC6 (read-out: HDAC6 IC50, Table 5), 3.7 nM; on HDAC6 (setting [4]) it was 3.7 nM; at HDAC4, 1900 nM; on HDAC1, 12000 nM. Further, the 50% inhibitory concentration (IC50) at HDAC1 (read-out: HDAC1 IC50, Table 5) came to 12000 nM; against HDAC8 it was 930 nM. Further, on HDAC6, the “selectivity against HDAC1 (HDAC6 vs HDAC1)” value was 3243 fold. Moreover, the “Selectivity = IC50 (HDAC1)/IC50 (HDAC6)” value on HDAC6 (Table 5) amounted to 3243. For the same compound, the inhibition at 10 µM at HDAC6 was 99%; at HDAC1, 53%. Further, the “HDAC 11 inhibitory effect” value on HDAC11 was “very low”.

For the compound `COc1cc(C(=O)NO)ccc1Cn1c2c(c3cc(F)ccc31)CS(=O)(=O)CC2` [Compound 10d], on HDAC6, the IC50 turned out to be 1300 nM and the inhibition at 10 µM worked out at 75%. Moreover, the inhibition at 10 µM at HDAC1 stood at 8%.

For the compound `CC(=O)O[C@H]1C(=O)[C@@]2(C)[C@H]([C@H](OC(=O)c3ccccc3)[C@]3(O)C[C@H](OC(=O)[C@H](O)[C@@H](NC(=O)c4ccccc4)c4ccccc4)C(C)=C1C3(C)C)[C@]1(OC(C)=O)CO[C@@H]1C[C@@H]2O` [Paclitaxel, reference compound], in test [1], the “inhibition … MTT assay” value was “inhibition of cell proliferation”. Further, in test [3] (1 μg/ml), the “inhibition of invasion of cells into collagen type I gel” value was “inhibition of invasion”. For the same compound, the “inhibition … SRB assay” value in test [2] was “inhibition of cell proliferation”.

As a reminder, the IC50 is the concentration at which inhibition is half-maximal. In general, inhibition refers to the change of the read-out against control, counted positive when it falls.
